This note sets out measurements from patent publication US8034926B2 (Abbott Laboratories, priority 2007, dated 2011).

The nature of series [1]: pharmacokinetics after a single intravenous dose in cynomolgus monkey. The settings on record: in vivo, 2.5 mg/kg.
Series [2] can be described thus: release of drug from PC polymer-coated 316 L stainless steel coupons. The settings on record: PC polymer-coated 316 L coupon. It is filed as physicochemical. The source says: Rubber septa from lids from HPLC vials were removed from the vials and placed into glass vials so that the “Teflon” side faced up. These septa served as supports for the test samples. The test samples were 316 L, stainless steel coupons that had been previously coated with a biocompatible polymer containing phosphorylcholine side groups (PC polymer). Coronary stents are commonly made of 316 L stainless steel and can be coated with the PC polymer to provide a depot site for loading drugs. The coated coupons, which serve to simulate stents, were placed onto the septa. By using a glass Hamilton Syringe, a solution of A-179578 and ethanol (10 μl) was applied to the surface of each coupon. The solution contained A-179578 (30.6 mg) dissolved in 100% ethanol (3.0 ml). The syringe was cleaned with ethanol between each application. The cap to the glass vial was placed on the vial loosely, thereby assuring proper ventilation. The coupon was allowed to dry for a minimum of 1.5 hours. Twelve (12) coupons were loaded in this way, six being used to determine the average amount of drug loaded onto the device and six being used to measure the time needed to release the drug from the devices.
The coupon was placed onto a 5210 Branson sonicator for one hour. The coupon was then removed from the solution, and the solution was assayed by HPLC.
The time release studies were performed by immersing and removing the individual coupons from fresh aliquots (10.0 ml) of 0.01 M phosphate buffer at a pH of 6.0 at each of the following time intervals; 5, 15, 30 and 60 minutes. For the remaining time points of 120, 180, 240, 300, 360 minutes, volumes of 5.0 ml of buffer were used. To facilitate mixing during the drug release phase, the samples were placed onto a Eberbach shaker set at low speed. All solution aliquots were assayed by HPLC after the testing of the last sample was completed.
The HPLC analysis was performed with a Hewlett Packard series 1100 instrument having the following settings: Injection Volume is 100 μl; Acquisition Time is 40 minutes; Flow Rate is 1.0 ml/min; Column Temperature is 40 degrees Celsius; Wavelength is 278 nm; Mobile Phase is 65% Acetonitrile/35% H20; and Column is YMC ODS-A S5 μm, 4.6×250 mm (Part No. Al2052546WT).

In series [3] the test system is neointimal formation in porcine coronary arteries containing stents. Kind of series: porcine coronary stent model, histomorphometry at 28 days. It counts as in vivo. The source says: The control stents are polymer-coated without drugs. This is important, for the polymer itself must not stimulate neointimal hyperplasia to a substantial degree. As the eluted drug disappears, an inflammatory response to the polymer could conceivably result in a late “catch-up phenomenon” where the restenosis process is not stopped, but instead slowed. This phenomenon would result in restenosis at late dates in human subjects.
Stems were implanted in two blood vessels in each pig. Pigs used in this model were generally 2-4 months old and weighed 30-40 kg. Two coronary stents were thus implanted in each pig by visually assessing a “normal” stent:artery ratio of 1.1-1.2.
Beginning on the day of the procedure, pigs were given oral aspirin (325 mg daily) and continued for the remainder of their course. General anesthesia was achieved by means of intramuscular injection followed by intravenous ketamine (30 mg/kg) and xylazine (3 mg/kg). Additional medication at the time of induction included atropine (1 mg) and flocillin (1 g) administered intramuscularly. During the stenting procedure, an intraarterial bolus of 10,000 units of heparin was administered.
Arterial access was obtained by cutdown on the right external carotid and placement of an 8F sheath. After the procedure, the animals were maintained on a normal diet without cholesterol or other special supplementation.
The BiodivYsio stent was used with nominal vessel target size of 3.0 mm. Two coronary arteries per pig were assigned at random to deployment of the stents. The stent was either a drug eluting stent (polymer plus drug stent) or a stent coated with a polymer only (polymer only stent). The stents were delivered by means of standard guide catheters and wires. The stent balloons were inflated to appropriate sizes for less than 30 seconds.
Each pig had one polymer only stent and one polymer plus drug stent placed in separate coronary arteries, so that each pig would have one stent for drug and one for control. A sample size of 20 pigs total was chosen to detect a projected difference in neointimal thickness of 0.2 mm with a standard deviation of 0.15 mm, at a power of 0.95 and […] 0.02.
Animals were euthanized at 28 days for histopathologic examination and quantification. Following removal of the heart from the perfusion pump system, the left atrial appendage was removed for access to the proximal coronary arteries. Coronary arterial segments with injuries were dissected free of the epicardium. Segments containing lesions were isolated, thereby allowing sufficient tissue to contain uninvolved blood vessel at either end. […]
The severity of vessel injury and the neointimal response were measured by calibrated digital microscopy. […]

The test system of series [4] is neointima formation in the coronary arteries of adult miniature swine. Put plainly: swine safety and efficacy study of drug dosages on in-stent neointima formation. It is filed as in vivo, Yucatan miniature swine. On the procedure: The purpose of this example was to evaluate the safety and efficacy of different drug dosages on neointima formation. Drug was delivered from the BiodivYsio OC stent (15 mm) coated with AST-578. In-stent neointima formation was measured at […]; 3 days, 1 month, and 3 months in the coronary arteries of adult miniature swine. Forty (40) animals were studied at each time interval (10 animals per dose). Each animal received one drug-coated stent and one control stent. The control stent contained no drug.
Potential local tissue toxicity was assessed at all time intervals by examining histopathologic changes in the stented region, adjacent coronary segments, perivascular tissue, and subserved myocardium. The mortality, angiographic implant and restudy data, histomorphometry data, and stent site histopathology were studied.

A short description of series [5]: loading and release of drug from 15 mm BiodivYsio drug delivery stents. It counts as physicochemical. The note with it: 15 mm BiodivYsio stent. Here is the method: Twelve individual polymer-coated stents were placed on fixtures designed to hold the stent in a vertical position and the stents were immersed vertically in the drug solution for five minutes. The stents and fixtures were removed from the vials and excess drug solution was blotted away by contacting the stents with an absorbant material. The stents were then allowed to dry in air for 30 minutes in an inverted vertical position.
The stents were removed from the fixtures, and each stent was placed into 50/50 acetonitrile/phosphate buffer (pH 5.1, 2.0 ml) and sonicated for one hour. The stems were removed from the solution and solutions were assayed for concentration of drug, which allowed calculation of the amount of drug originally on the stents. This method was independently shown to remove at least 95% of the drug from the stent coating. On average, the stents contained 60 micrograms of drug±20 micrograms.
The drug-loaded stents were placed on the fixtures and placed into 0.01 M phosphate buffer (pH=6.0, 1.9 ml) in individual vials. These samples were placed onto an Eberbach shaker set at low speed to provide back-and-forth agitation. To avoid approaching drug saturation in the buffer, the stents were transferred periodically to fresh buffer vials at the following points: 15, 30, 45, 60, 120, 135, 150, 165, 180, 240, 390 minutes. The dissolution buffer vials were assayed by HPLC for the drug concentration at the end of the drug release period studied. The data, represented as % cumulative release of the drug as a function of time, is shown in tabular form below: […]

[6] abbreviates: porcine coronary arteries, 28 days.

“Also recorded” adds a separate entry of the source.

As to “40-epi-N-[2′-pyridone]-rapamycin [Example 2-pyridone]”, the exposure (AUC) in series [1] is 2550 ng·h/mL.

As to `COC1CC2CCC(C)C(O)(O2)C(=O)C(=O)N2CCCCC2C(=O)OC(C(C)CC2CCC(n3cnnn3)C(OC)C2)CC(=O)C(C)C=C(C)C(O)C(OC)C(=O)C(C)CC(C)C=CC=CC=C1C` (centres unmarked) [ABT-578, 42-(1-tetrazolyl)-rapamycin], the “Percent Release” value was found to be 0.00% in series [2] (0.01 M phosphate buffer pH 6.0, 0.00 min); 1.87% in series [2] (0.01 M phosphate buffer pH 6.0, 5.00 min); 2.97% in series [2] (0.01 M phosphate buffer pH 6.0, 15.00 min); 3.24% in series [2] (0.01 M phosphate buffer pH 6.0, 30.00 min); 3.29% in series [2] (0.01 M phosphate buffer pH 6.0, 60.00 min); 4.36% in series [2] (0.01 M phosphate buffer pH 6.0, 180.00 min). For the same compound, the “Percent Release” value came out at 4.37% in series [2] (0.01 M phosphate buffer pH 6.0, 240.00 min); 6.34% in series [2] (0.01 M phosphate buffer pH 6.0, 300.00 min); 7.88% in series [2] (0.01 M phosphate buffer pH 6.0, 360.00 min). In addition, the “lumen area vs polymer only stent” value in series [3] (setting [6]) is “greater lumen area”. The “neointimal area vs polymer only stent” value in series [3] (setting [6]) is given as “lower neointimal area”. For the same compound, the “neointimal thickness vs polymer only stent” value in series [3] (setting [6]) is reported as “lower neointimal thickness”. Also, the “neointimal hyperplasia” value in series [3] (stent with polymer in porcine coronary artery) is “reduction in neointimal hyperplasia”.

As to `CO[C@H]1C[C@@H]2CC[C@@H](C)[C@@](O)(O2)C(=O)C(=O)N2CCCC[C@H]2C(=O)O[C@H]([C@H](C)C[C@@H]2CC[C@H](n3cnnn3)[C@H](OC)C2)CC(=O)[C@H](C)/C=C(\C)[C@@H](O)[C@@H](OC)C(=O)[C@H](C)C[C@H](C)/C=C/C=C/C=C/1C` [ABT-578, 42-(1-tetrazolyl)-rapamycin], the “local coronary arterial wall toxicity: medial necrosis or stent malapposition” value in series [4] (any dose group up to approximately 27 μg/mm stent length, any time interval) is on record as “no local coronary arterial wall toxicity”. The “histologic % stenosis vs control” value in series [4] (one month, dose group 3) is recorded as “tendency towards decreased”. Further, the “absolute intima area vs control” value in series [4] (one month, dose groups 3 and 4) is recorded as “trends for decreases”. Further, the “intima thickness vs control” value in series [4] (one month, dose groups 3 and 4) is “trends for decreases”. The “Intima area normalized to injury score vs control” value in series [4] (one month, dose groups 3 and 4 (10 and 27 μg/mm)) was “significantly decreased”. For the same compound, the “neointima formation in stented coronary arteries” value in series [4] (one month, locally eluted from stent) is listed as “significant inhibitory effect; also recorded: reduced in-stent neointima formation”. For the same compound, the “extent of endothelial recovery over the stent struts” value in series [4] (three days after implant, all dosages, scanning electron microscopy) is listed as “did not appear retarded”. The “persistent inhibitory effect on neointima” value in series [4] (three months) is “weak tendency”. Also, the “% Cumulative Release of Drug” value is given as 0.3% in series [5] (0.01 M phosphate buffer pH 6.0, 15 min); 1.1% in series [5] (0.01 M phosphate buffer pH 6.0, 30 min); 2.1% in series [5] (0.01 M phosphate buffer pH 6.0, 45 min); 3.2% in series [5] (0.01 M phosphate buffer pH 6.0, 60 min); 4.3% in series [5] (0.01 M phosphate buffer pH 6.0, 120 min); 5.9% in series [5] (0.01 M phosphate buffer pH 6.0, 135 min). The “% Cumulative Release of Drug” value in series [5] (0.01 M phosphate buffer pH 6.0, 150 min) came to 6.3%; in series [5] (0.01 M phosphate buffer pH 6.0, 165 min), 6.8%; in series [5] (0.01 M phosphate buffer pH 6.0, 180 min), 7.4%.

Compound `COC1CC2CCC(C)C(O)(O2)C(=O)C(=O)N2CCCCC2C(=O)OC(C(C)CC2CCC(n3ccc(=O)cc3)C(OC)C2)CC(=O)C(C)C=C(C)C(O)C(OC)C(=O)C(C)CC(C)C=CC=CC=C1C` (stereo not drawn) [Example 4-pyridone, 40-epi-N-[4′-pyridone]-rapamycin] showed an AUC in series [1] of 5590 ng·h/mL.

By AUC is commonly meant concentration integrated over time.
